From the supplement of paper PMC10627819

Assays:
Settings in all cases: main component drawn
[1] = system: B. subtilis 168; experiment: fitness (endpoint OD595 vs no drug) (fraction); higher = more growth
Procedure, shortened: (§1)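 Fitness was defined as the optical density at the transition into stationary phase relative to the robust mean of no-drug control wells. Values were capped at 1. Cultures were started at OD595 0.01 in 384-well plates (30 µl, or 55 µl for S. pneumoniae) in TSB, LB Lennox or CY at 37 °C. OD595 was recorded every 30 min over 14 h, with the first reading subtracted as background.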

[2] = system: S. pneumoniae D39V; experiment: as above
Procedure, shortened: as §1

[3] = system: B. subtilis 168; experiment: Bliss interaction score (quartile over a dose matrix) (fitness difference); higher = more antagonism (negative = synergy)
Procedure, shortened: (§2)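 The Bliss score is observed fitness minus expected fitness, where the expected value is the product of single-drug fitness values inferred from combination data. Fitness is OD595 at entry into stationary phase normalised to the plate's robust no-drug mean and capped at 1. Scores are reported as quartiles spanning technical, biological and donor/recipient replicates.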

[4] = system: S. aureus DSM 20231; experiment: as above
Procedure, shortened: as §2

[5] = system: S. aureus Newman; experiment: as above
Procedure, shortened: as §2

[6] = system: S. pneumoniae D39V; experiment: as above
Procedure, shortened: as §2
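Throughout, for Bliss interaction score (quartile over a dose matrix): first quartile when negative (synergy) and third quartile when positive (antagonism).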

CNC(C)C1CCC(N)C(OC2C(N)CC(N)C(OC3OCC(C)(O)C(NC)C3O)C2O)O1 (stereo unspecified) [Gentamicin] + CCC(C)C1C(=O)NC(=C)C(=O)NC(C(=O)NC(CSCC(C(=O)N1)NC(=O)/C(=C/C)/NC(=O)C(C(C)CC)N)C(=O)NC2C(SCC(NC(=O)CNC(=O)C3CCCN3C2=O)C(=O)NC(CCCCN)C(=O)NC4C(SCC(NC(=O)CNC(=O)C(NC(=O)C(NC(=O)C(NC(=O)CNC4=O)C)CC(C)C)CCSC)C(=O)NC(CC(=O)N)C(=O)NC(CCSC)C(=O)NC(CCCCN)C(=O)NC5C(SCC6C(=O)NC(C(=O)NC(CSC(C(C(=O)N6)NC(=O)C(NC5=O)C)C)C(=O)NC(CO)C(=O)NC(C(C)CC)C(=O)NC(CC7=CN=CN7)C(=O)NC(C(C)C)C(=O)NC(=C)C(=O)NC(CCCCN)C(=O)O)CC8=CN=CN8)C)C)C)CC(C)C [Nisin]
Settings	fitness
[1], first compound 0.0625 µg/mL, partner 0.5 µg/mL	0.865
[1], first compound 0.0625 µg/mL, partner 1 µg/mL	0.793
[1], first compound 0.125 µg/mL, partner 0.5 µg/mL	0.768
[1], first compound 0.125 µg/mL, partner 2 µg/mL	0.213
[1], first compound 0.25 µg/mL, partner 0.5 µg/mL	0.27
[1], first compound 0.25 µg/mL, partner 1 µg/mL	0.102
[1], first compound 0.25 µg/mL, partner 2 µg/mL	0.057
[2], first compound 2 µg/mL, partner 0.4275 µg/mL	0.957
[2], first compound 2 µg/mL, partner 0.855 µg/mL	≥ 1
[2], first compound 2 µg/mL, partner 1.6 µg/mL	0.0179
[2], first compound 2 µg/mL, partner 1.71 µg/mL	0.0948
[2], first compound 2 µg/mL, partner 3.2 µg/mL	0.0145
[2], first compound 2 µg/mL, partner 6.4 µg/mL	0.0183
[2], first compound 4 µg/mL, partner 0.4275 µg/mL	0.999
[2], first compound 4 µg/mL, partner 0.855 µg/mL	≥ 1
[2], first compound 4 µg/mL, partner 1.6 µg/mL	0.0111
[2], first compound 4 µg/mL, partner 1.71 µg/mL	0.07
[2], first compound 4 µg/mL, partner 3.2 µg/mL	0.0177
[2], first compound 4 µg/mL, partner 6.4 µg/mL	0.0081
[2], first compound 8 µg/mL, partner 0.4275 µg/mL	0.99
[2], first compound 8 µg/mL, partner 0.855 µg/mL	0.986
[2], first compound 8 µg/mL, partner 1.6 µg/mL	0.0051
[2], first compound 8 µg/mL, partner 1.71 µg/mL	0.0917
[2], first compound 8 µg/mL, partner 3.2 µg/mL	0.0325
[2], first compound 8 µg/mL, partner 6.4 µg/mL	0.0106

fitness, [1], one replicate
Settings	partner 1.25 µg/mL	partner 1.6 µg/mL	partner 2.5 µg/mL	partner 3.2 µg/mL	partner 4 µg/mL	partner 5 µg/mL	partner 6.4 µg/mL	partner 8 µg/mL	partner 16 µg/mL
first compound 0.0625 µg/mL	0.861	0.703	0.037	0.0387	0.0303	0.0263	0.0574	0.0215	0.0053
first compound 0.125 µg/mL	0.378	0.504	0.0311	0.0535	0.0234	0.0338	0.0847	0.0224	0.0101
first compound 0.25 µg/mL	0.078	0.0505	0.0563	0.0642	0.0357	0.0313	0.0596	0.0124	0.007

Settings	Bliss interaction score
[3]	-0.0796
[4]	0.227
[5]	0.0431
[6]	-0.0396
